Assay results from paper PMC12136037, “Type II kinase inhibitors that target Parkinson’s disease–associated LRRK2” (Science Advances, 2025).
Values joined by “and” are separate entries in the source; they are usually repeats but may differ in a detail not shown here. Identical values can stand only once. Like-named read-outs stand apart in the source and are kept apart here.

Experiments:
STK10 = molecular target: T1, STK10 (Homo sapiens, UniProt O94804); assay: nanoBRET off-target validation; type: cell-based
T1 construct: host or cells: HEK293T (ATCC CRL-3216)
T1 sequence (O94804 whole entry): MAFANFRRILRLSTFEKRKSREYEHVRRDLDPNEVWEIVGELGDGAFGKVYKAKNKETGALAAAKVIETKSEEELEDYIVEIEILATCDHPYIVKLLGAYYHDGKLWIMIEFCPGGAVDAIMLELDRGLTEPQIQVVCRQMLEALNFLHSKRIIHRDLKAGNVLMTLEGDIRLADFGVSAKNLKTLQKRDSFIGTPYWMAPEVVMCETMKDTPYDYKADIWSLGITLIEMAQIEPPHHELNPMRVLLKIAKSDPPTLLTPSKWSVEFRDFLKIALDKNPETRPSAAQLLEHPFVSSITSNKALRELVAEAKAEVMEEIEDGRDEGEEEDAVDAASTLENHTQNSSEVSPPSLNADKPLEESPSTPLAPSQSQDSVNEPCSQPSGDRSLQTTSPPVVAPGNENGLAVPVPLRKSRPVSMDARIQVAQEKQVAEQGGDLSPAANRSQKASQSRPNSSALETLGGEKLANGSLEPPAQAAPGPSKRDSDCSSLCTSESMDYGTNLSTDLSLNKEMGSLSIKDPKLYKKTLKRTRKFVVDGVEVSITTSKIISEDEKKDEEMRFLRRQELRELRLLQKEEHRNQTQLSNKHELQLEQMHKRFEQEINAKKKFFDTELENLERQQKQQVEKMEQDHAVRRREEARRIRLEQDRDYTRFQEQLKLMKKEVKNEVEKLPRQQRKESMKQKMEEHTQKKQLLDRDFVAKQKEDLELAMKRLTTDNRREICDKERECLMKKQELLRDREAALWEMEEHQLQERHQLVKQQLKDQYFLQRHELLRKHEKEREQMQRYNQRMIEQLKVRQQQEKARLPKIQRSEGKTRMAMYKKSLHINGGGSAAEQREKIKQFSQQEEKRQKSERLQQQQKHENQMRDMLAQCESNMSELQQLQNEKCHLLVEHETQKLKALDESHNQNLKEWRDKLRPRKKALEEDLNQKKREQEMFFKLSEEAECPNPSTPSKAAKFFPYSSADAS
Protocol: (§1) The assay was performed as described previously ([61]). In brief, full-length kinases as listed in table S6 were obtained as plasmids cloned in frame with terminal NanoLuc-fusion (gift from Promega; table S6). […] Serially diluted inhibitor and corresponding tracer as listed in table S6 at the Tracer KD concentration taken from TracerDB (tracerdb.org) ([62]) were pipetted into white 384-well plates (Greiner, 781207) using an ECHO acoustic dispenser (Labcyte). The corresponding protein-transfected cells were added and reseeded at a density of 2 × 10^5 cells/ml after trypsinization and resuspending in Opti-MEM without phenol red (Life Technologies). The system was allowed to equilibrate for 3 hours at 37°C/5% CO2 before bioluminescence resonance energy transfer (BRET) measurements. To measure BRET, NanoBRET NanoGlo Substrate + extracellular NanoLuc Inhibitor (Promega, N2540) was added as per the manufacturer’s protocol, and filtered luminescence was measured on a PHERAstar plate reader (BMG Labtech) equipped with a luminescence filter pair [450-nm BP filter (donor) and 610-nm LP filter (acceptor)]. […] (For step-by-step protocol, see www.eubopen.org/sites/www.eubopen.org/files/attachments/2021/NanoBRET-IC50_v1_0.pdf.)

MAPK14 = molecular target: T2, MAPK14 (Homo sapiens, UniProt Q16539); assay: nanoBRET off-target validation; type: cell-based
T2 construct: host or cells: HEK293T (ATCC CRL-3216)
T2 sequence (Q16539 whole entry): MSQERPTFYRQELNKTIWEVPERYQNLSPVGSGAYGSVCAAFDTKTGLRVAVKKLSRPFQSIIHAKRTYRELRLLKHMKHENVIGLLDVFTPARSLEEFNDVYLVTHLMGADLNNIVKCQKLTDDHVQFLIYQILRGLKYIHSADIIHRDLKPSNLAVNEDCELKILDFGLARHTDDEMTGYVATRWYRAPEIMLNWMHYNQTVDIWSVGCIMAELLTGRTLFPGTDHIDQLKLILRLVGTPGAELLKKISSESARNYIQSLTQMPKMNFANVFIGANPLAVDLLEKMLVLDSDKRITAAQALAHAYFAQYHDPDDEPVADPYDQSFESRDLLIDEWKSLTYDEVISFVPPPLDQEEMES
Protocol: as §1

[1] = in cellulo nanoBRET, 293T cells

SMILES: CCSc1nc(NC)c2c(-c3cccc(NC(=O)Nc4cc(C(C)(C)C)nn4-c4ccc(C)cc4)c3)c[nH]c2n1 [Compound 32]
- nanoBRET response normalized to 0% (no tracer) and 100% (no inhibitor) control (STK10; STK10, inhibitor 8 nM, two replicates, listed as RN341, 0.008 µM): 93.5752%
- remaining activity at 0.008 µM (STK10; STK10, inhibitor 8 nM, two replicates, read-out: nanoBRET response normalized to 0% (no tracer) and 100% (no inhibitor) control): 98.7%
- nanoBRET response normalized to 0% (no tracer) and 100% (no inhibitor) control (STK10; STK10, inhibitor 16 nM, two replicates, listed as RN341, 0.016 µM): 98.653%
- remaining activity at 0.016 µM (STK10; STK10, inhibitor 16 nM, two replicates, read-out: nanoBRET response normalized to 0% (no tracer) and 100% (no inhibitor) control): 95%
- nanoBRET response normalized to 0% (no tracer) and 100% (no inhibitor) control (STK10; STK10, inhibitor 50 nM, two replicates, listed as RN341, 0.05 µM): 90.2983%
- remaining activity at 0.05 µM (STK10; STK10, inhibitor 50 nM, two replicates, read-out: nanoBRET response normalized to 0% (no tracer) and 100% (no inhibitor) control): 93.4%
- nanoBRET response normalized to 0% (no tracer) and 100% (no inhibitor) control (STK10; STK10, inhibitor 250 nM, two replicates, listed as RN341, […]): 75.9451%
- remaining activity at […] (STK10; STK10, inhibitor 250 nM, two replicates, read-out: nanoBRET response normalized to 0% (no tracer) and 100% (no inhibitor) control): 77.3%
- nanoBRET response normalized to 0% (no tracer) and 100% (no inhibitor) control (STK10; STK10, inhibitor 500 nM, two replicates, listed as RN341, 0.5 µM): 59.4137%
- remaining activity at 0.5 µM (STK10; STK10, inhibitor 500 nM, two replicates, read-out: nanoBRET response normalized to 0% (no tracer) and 100% (no inhibitor) control): 61.4%
- nanoBRET response normalized to 0% (no tracer) and 100% (no inhibitor) control (STK10; STK10, inhibitor 2500 nM, two replicates, listed as RN341, […]): 44.5595%
- remaining activity at […] (STK10; STK10, inhibitor 2500 nM, two replicates, read-out: nanoBRET response normalized to 0% (no tracer) and 100% (no inhibitor) control): 60.9%
- nanoBRET response normalized to 0% (no tracer) and 100% (no inhibitor) control (STK10; STK10, inhibitor 5000 nM, two replicates, listed as RN341, 5 µM): 40.1132%
- remaining activity at 5 µM (STK10; STK10, inhibitor 5000 nM, two replicates, read-out: nanoBRET response normalized to 0% (no tracer) and 100% (no inhibitor) control): 58.5%
- nanoBRET response normalized to 0% (no tracer) and 100% (no inhibitor) control (STK10; STK10, inhibitor 25000 nM, two replicates, listed as RN341, 25 µM): 8.0832%
- remaining activity at 25 µM (STK10; STK10, inhibitor 25000 nM, two replicates, read-out: nanoBRET response normalized to 0% (no tracer) and 100% (no inhibitor) control): 6.79%
- EC50 (STK10; [1]): < 5000 nM and 1500 nM
- nanoBRET response normalized to 0% (no tracer) and 100% (no inhibitor) control (MAPK14; MAPK14, inhibitor 8 nM, two replicates, listed as RN341, 0.008 µM): 98.3554%
- remaining activity at 0.008 µM (MAPK14; MAPK14, inhibitor 8 nM, two replicates, read-out: nanoBRET response normalized to 0% (no tracer) and 100% (no inhibitor) control): 100%
- nanoBRET response normalized to 0% (no tracer) and 100% (no inhibitor) control (MAPK14; MAPK14, inhibitor 16 nM, two replicates, listed as RN341, 0.016 µM): 103.532%
- remaining activity at 0.016 µM (MAPK14; MAPK14, inhibitor 16 nM, two replicates, read-out: nanoBRET response normalized to 0% (no tracer) and 100% (no inhibitor) control): 96.2%
- nanoBRET response normalized to 0% (no tracer) and 100% (no inhibitor) control (MAPK14; MAPK14, inhibitor 50 nM, two replicates, listed as RN341, 0.05 µM): 95.4254%
- remaining activity at 0.05 µM (MAPK14; MAPK14, inhibitor 50 nM, two replicates, read-out: nanoBRET response normalized to 0% (no tracer) and 100% (no inhibitor) control): 90.1%
- nanoBRET response normalized to 0% (no tracer) and 100% (no inhibitor) control (MAPK14; MAPK14, inhibitor 250 nM, two replicates, listed as RN341, […]): 83.4876%
- remaining activity at […] (MAPK14; MAPK14, inhibitor 250 nM, two replicates, read-out: nanoBRET response normalized to 0% (no tracer) and 100% (no inhibitor) control): 73.2%
- nanoBRET response normalized to 0% (no tracer) and 100% (no inhibitor) control (MAPK14; MAPK14, inhibitor 500 nM, two replicates, listed as RN341, 0.5 µM): 52.7705%
- remaining activity at 0.5 µM (MAPK14; MAPK14, inhibitor 500 nM, two replicates, read-out: nanoBRET response normalized to 0% (no tracer) and 100% (no inhibitor) control): 57.4%
- nanoBRET response normalized to 0% (no tracer) and 100% (no inhibitor) control (MAPK14; MAPK14, inhibitor 2500 nM, two replicates, listed as RN341, […]): 49.0355%
- remaining activity at […] (MAPK14; MAPK14, inhibitor 2500 nM, two replicates, read-out: nanoBRET response normalized to 0% (no tracer) and 100% (no inhibitor) control): 48.5%
- nanoBRET response normalized to 0% (no tracer) and 100% (no inhibitor) control (MAPK14; MAPK14, inhibitor 5000 nM, two replicates, listed as RN341, 5 µM): 40.5445%
- remaining activity at 5 µM (MAPK14; MAPK14, inhibitor 5000 nM, two replicates, read-out: nanoBRET response normalized to 0% (no tracer) and 100% (no inhibitor) control): 48.2%
- nanoBRET response normalized to 0% (no tracer) and 100% (no inhibitor) control (MAPK14; MAPK14, inhibitor 25000 nM, two replicates, listed as RN341, 25 µM): 17.1717%
- remaining activity at 25 µM (MAPK14; MAPK14, inhibitor 25000 nM, two replicates, read-out: nanoBRET response normalized to 0% (no tracer) and 100% (no inhibitor) control): 25.4%
- EC50 (MAPK14; [1]): < 5000 nM and 1700 nM
